Measured values published in PubChem BioAssay (NCI).
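Briefly, cells in 96-well plates were exposed to five compound concentrations for 48 h, and endpoints were estimated by linear interpolation. At the TGI there is no net growth.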

What was measured:
Test in all cases: inhibition of tumour cell growth, NCI panel, 48 h
HL-60(TB) leukemia = tested on: HL-60(TB) leukemia
NCI-H522 lung = tested on: NCI-H522 lung
SF-295 CNS = tested on: SF-295 CNS
EKVX NSCLC = tested on: EKVX NSCLC
UACC-257 melanoma = tested on: UACC-257 melanoma
M14 melanoma = tested on: M14 melanoma
PC-3 prostate = tested on: PC-3 prostate
TK-10 renal = tested on: TK-10 renal
NCI-H226 lung = tested on: NCI-H226 lung
KM12 colon = tested on: KM12 colon
HT29 colon = tested on: HT29 colon
UO-31 renal = tested on: UO-31 renal
OVCAR-8 ovarian = tested on: OVCAR-8 ovarian
BT-549 breast = tested on: BT-549 breast
LOX IMVI melanoma = tested on: LOX IMVI melanoma
HOP-62 NSCLC = tested on: HOP-62 NSCLC
SN12C renal = tested on: SN12C renal
HOP-92 NSCLC = tested on: HOP-92 NSCLC
HCC-2998 colon = tested on: HCC-2998 colon
SNB-19 CNS = tested on: SNB-19 CNS
MDA-MB-231 breast = tested on: MDA-MB-231 breast
OVCAR-3 ovarian = tested on: OVCAR-3 ovarian
786-0 renal = tested on: 786-0 renal
NCI-H460 lung = tested on: NCI-H460 lung
RXF 393 renal = tested on: RXF 393 renal
SNB-75 CNS = tested on: SNB-75 CNS
ACHN renal = tested on: ACHN renal
MALME-3M melanoma = tested on: MALME-3M melanoma
K-562 leukemia = tested on: K-562 leukemia
NCI/ADR-RES ovarian = tested on: NCI/ADR-RES ovarian
A498 renal = tested on: A498 renal
T-47D breast = tested on: T-47D breast
HCT-116 colon = tested on: HCT-116 colon
NCI-H23 lung = tested on: NCI-H23 lung
MOLT-4 leukemia = tested on: MOLT-4 leukemia
CAKI-1 renal = tested on: CAKI-1 renal
MDA-MB-435 = tested on: MDA-MB-435
MCF7 breast = tested on: MCF7 breast
IGROV1 ovarian = tested on: IGROV1 ovarian
SK-MEL-28 melanoma = tested on: SK-MEL-28 melanoma
UACC-62 melanoma = tested on: UACC-62 melanoma
MDA-N = tested on: MDA-N
HCT-15 colon = tested on: HCT-15 colon
COLO 205 colon = tested on: COLO 205 colon
RPMI-8226 leukemia = tested on: RPMI-8226 leukemia
OVCAR-4 ovarian = tested on: OVCAR-4 ovarian
SF-539 CNS = tested on: SF-539 CNS
SK-OV-3 ovarian = tested on: SK-OV-3 ovarian
SK-MEL-5 melanoma = tested on: SK-MEL-5 melanoma
SK-MEL-2 melanoma = tested on: SK-MEL-2 melanoma
A549 NSCLC = tested on: A549 NSCLC
CCRF-CEM leukemia = tested on: CCRF-CEM leukemia
DU-145 prostate = tested on: DU-145 prostate
SF-268 CNS = tested on: SF-268 CNS
OVCAR-5 ovarian = tested on: OVCAR-5 ovarian
HS 578T breast = tested on: HS 578T breast
U251 CNS = tested on: U251 CNS
SW-620 colon = tested on: SW-620 colon
SR leukemia = tested on: SR leukemia

Measured: TGI

CS(=O)(=O)N1CC(CCl)c2ccc(NO)cc21 (configuration not stated)
> 57.2 µM: COLO 205 colon
27.9 µM: OVCAR-8 ovarian | HOP-92 NSCLC
28.6 µM: HCT-15 colon
34.3 µM: M14 melanoma
26.5 µM: UACC-62 melanoma
8.58 µM: K-562 leukemia
39.5 µM: PC-3 prostate
35.5 µM: MCF7 breast
19 µM: MOLT-4 leukemia
51.1 µM: TK-10 renal
> 50.4 µM: SW-620 colon
47.4 µM: HOP-62 NSCLC
40.3 µM: SK-MEL-28 melanoma
35.4 µM: MDA-MB-435
10.9 µM: RXF 393 renal
60.1 µM: T-47D breast
21 µM: ACHN renal
> 100 µM: A549 NSCLC | DU-145 prostate
29 µM: IGROV1 ovarian
16 µM: RPMI-8226 leukemia
41.3 µM: SK-MEL-2 melanoma
22.9 µM: NCI/ADR-RES ovarian
61.9 µM: SF-295 CNS
36.2 µM: KM12 colon
37.7 µM: MALME-3M melanoma
32.5 µM: EKVX NSCLC
> 31.6 µM: SK-OV-3 ovarian
> 86.4 µM: SNB-19 CNS
30.5 µM: MDA-MB-231 breast
32.3 µM: SNB-75 CNS
5.1 µM: CCRF-CEM leukemia
26.1 µM: SF-539 CNS
22.5 µM: SF-268 CNS
27.6 µM: CAKI-1 renal
60 µM: HS 578T breast
32.4 µM: MDA-N
16.3 µM: NCI-H522 lung
> 78 µM: NCI-H226 lung
32.6 µM: SN12C renal
32.8 µM: U251 CNS
29.4 µM: HT29 colon | LOX IMVI melanoma
40.6 µM: UACC-257 melanoma
32 µM: HCT-116 colon
16.5 µM: UO-31 renal
34.4 µM: NCI-H460 lung
28.2 µM: SK-MEL-5 melanoma
25.1 µM: BT-549 breast
40.7 µM: OVCAR-3 ovarian | OVCAR-4 ovarian
28 µM: 786-0 renal
20 µM: HL-60(TB) leukemia
31.5 µM: A498 renal
40.5 µM: OVCAR-5 ovarian
18 µM: NCI-H23 lung
28.5 µM: HCC-2998 colon

O=C1CC2OCC=C3CN4CCC56c7ccccc7N1C5C2C3CC46O (configuration not stated)
not listed: HOP-62 NSCLC | RXF 393 renal | SR leukemia
> 100 µM: all other assays above

COc1ccc(-n2c(CCC(=O)O)nc3c2C(=O)c2ccccc2C3=O)cc1
not listed: HOP-92 NSCLC | MALME-3M melanoma | IGROV1 ovarian
> 100 µM: all other assays above

O=c1[nH]/c(=C/c2ccc3c(c2)OCO3)c(=O)[nH]/c1=C/c1ccc2c(c1)OCO2
not listed: HL-60(TB) leukemia | SR leukemia
> 10 µM: all other assays above
